Legend:
[1] = Phase II multicenter dosimetry study of ^166Ho-DOTMP: safety, biodistribution, pharmacokinetics (Example 9); format: in vivo, human
Experimental: A 12-patient, Phase II multicenter study was performed to further evaluate the safety, biodistribution and pharmacokinetics of ^166Ho-DOTMP. Each patient was to receive two 30 mCi tracer doses of ^166Ho-DOTMP followed, in eligible patients (those with adequate skeletal uptake parameters), by a therapy dose calculated to deliver 25 Gy to the red marrow. All patients in this study received CBI.

multiple myeloma = assay: Single patient: 40 Gy ^166Ho-DOTMP, melphalan 140 mg/m^2 (Example 12); format: in vivo, human
Experimental: The patient, a person with an original diagnosis of multiple myeloma, was administered a therapeutic dose of ^166Ho-DOTMP of 3875 mCi which was calculated to deliver 40 Gy to the marrow. Post ^166Ho-DOTMP, the patient received a dose of 140 mg/m^2 of melphalan (I.V.). The patients stem cells were reinfused three days after the melphalan and were followed by G-CSF for ten days.

[2] = Stability of ^166Ho-DOTMP with and without stabilizer: radiochemical purity by ITLC, CEC, HPLC (Example 15); format: physicochemical; conditions: ascorbic acid about 35-75 mg/mL, ambient conditions, unfrozen
Experimental: Samples of ^166Ho-DOTMP were prepared according to the procedure in Example 1 using ascorbic acid, 55 mg/mL, as the stabilizer. Identical samples were prepared without ascorbic acid. The solutions were analyzed for radiochemical purity after 1 hour, 6 hours, 10 hours, 24 hours, and 48 hours, using Instant Thin Layer Chromatography (ILTC), Cation Exchange Chromatography (CEC) and High Performance Liquid Chromatography (HPLC).

[3] = Pharmacokinetics and patient specific dosimetry of ^166Ho-DOTMP in patients with breast cancer metastatic to bone (Example 6); format: in vivo, human
Experimental: Eight patients with breast cancer metastatic only to bone initially received a 30 mCi dose of ^166Ho-DOTMP for diagnostic purposes. Pharmacokinetics were assessed via whole body counting, gamma camera imaging, and urine and blood assays for the first 48 hours following injection. Patients were followed with autologous stem cell transplantation for rescue from hematologic toxicity.
Therapy doses were calculated based upon prescribed dose to the red bone marrow using the Medical Internal Radiation Dose (MIRD) technique and percentage localization in the skeleton. Appropriate S-values were provided by Oak Ridge National Laboratory. The desired target dose was 22 Gy to the red marrow calculated by the above technique for each individual. The average red marrow dose was calculated to be 1.97±0.92 cGy/mCi (range: 0.98 cGy/mCi to 3.19 cGy/mCi). Three patients proceeded to therapy, two were disqualified due to low uptake in the skeleton (≦30%; revised qualification: 15%), and three were disqualified for other reasons unrelated to the ^166Ho-DOTMP treatment.

[4] = 3875 mCi (40 Gy to marrow), melphalan 140 mg/m^2, one patient

O=P([O-])(O)CN1CCN(CP(=O)(O)O)CCN(CP(=O)([O-])O)CCN(CP(=O)(O)O)CC1.[166Ho] [^166Ho-DOTMP]
route of excretion ([1]; gamma camera counting and urine PK): no route of excretion other than the urine
localization of retained activity ([1]; gamma camera images): retained activity was localized in the skeleton
hypocalcemia or associated cardiac abnormalities ([1]; serum calcium, ECG and Holter monitoring): no clinical observations of hypocalcemia or associated cardiac abnormalities were noted
acute toxicities ([1]; therapy dose 25 Gy to red marrow): no unexpected acute toxicities were noted
time to engraftment after stem cell transplant ([1]; therapy dose calculated to deliver 25 Gy to red marrow, all patients): ≤ 15 days
days post stem cell transplant to neutrophil engraftment (ANC >500) (multiple myeloma; [4]): Nine
days post transplant to platelet engraftment (>20,000) (multiple myeloma; [4]): fourteen
response (multiple myeloma; twenty-eight days post transplant, one patient): complete remission
time the solution is stable, e.g., therapeutically useful [2]: ≥ 72 h
effective skeletal half-life ([3]; 30 mCi diagnostic dose): 19.9 ± 2.5 h
average percentage uptake in the skeleton ([3]; 30 mCi diagnostic dose, eight patients): 28±12%
material present in the urine ([3]; 6 hours post injection): Approximately 50%
injected dose remaining in whole blood ([3]; 24 hours post injection): a small percentage
whole blood clearance early T1/2 ([3]; biphasic clearance): 3 ± 2.4 min
whole blood clearance late T1/2 ([3]; biphasic clearance): 11 ± 4 h
average red marrow dose ([3]; calculated by MIRD technique): 1.97±0.92 cGy/mCi
toxicity ([3]; therapy, target 22 Gy to red marrow, three patients): Other than severe hematological suppression, no toxicity was noted
